Key:
Assay type in all cases: physicochemical
[1] = Physical stability on storage, XRPD pattern
Experimental: 3.1 XRPD Method • Details of XRPD method used in the tests are mentioned below: • X-ray Generator: Cu, Kα (λ=1.54179 Å). • Tube Voltage: 40 kV; Current: 40 mA. • Scanning Scope: 4 to 40 deg; • Sample rotation speed: 15 rpm. • Scanning rate: 10 deg/min
(§1) About 40 mg of scaled up amorphous sample prepared by solvent-anti-solvent precipitation (addition of water to acetone) as described in Example 6 was weighed into glass vials. The vials were stored under different testing conditions (25° C. closed vial, 25° C./60% RH, 40° C. closed vial and 40° C./75% RH) 1 week, 2 weeks, 4 weeks, and 3 months. The original scaled up amorphous form was used as a control. XRPD and mDSC were checked at the end of each time point.

[2] = Physical stability on storage, appearance
Experimental: as §1

[3] = Physical stability on storage, mDSC
Experimental: Details of mDSC methods used in the tests are mentioned below: • Method I: Amorphous samples (about 1 mg) were run a modulated DSC using Tzero aluminum pans heated from 0° C. to 200° C. at speed of 2° C./min, with modulation temperature amplitude 1.0° C. and modulation 60 s. • Method II: The two-cycle heating mDSC was run using Tzero aluminum hermetic pans with pinhole with first cycle heated from 0° C. to 160° C. at speed of 2° C./min and the second cycle from 0° C. to 260° C. at speed of 2° C./min.
as §1

[4] = stored 25° C. Closed, 3rd month
[5] = stored 25° C./60% RH, 3rd month
[6] = stored 40° C. Closed, 3rd month
[7] = stored 40° C./75% RH, 3rd month

## CCOc1cc([C@@H](CS(C)(=O)=O)N2C(=O)c3cccc(NC(C)=O)c3C2=O)ccc1OC [amorphous apremilast, N-[2-[(1S)-1-(3-ethoxy-4-methoxyphenyl)-2-(methylsulfonyl)ethyl]-2,3-dihydro-1,3-dioxo-1H-isoindol-4-yl]acetamide]
[1]; stored 25° C. Closed, 1st week
  XRPD Pattern: Amorphous
[1]; stored 25° C. Closed, 2nd week
  XRPD Pattern: Amorphous
[1]; [4]
  XRPD Pattern: Amorphous
[1]; stored 25° C. Closed, 4th week
  XRPD Pattern: Amorphous
[1]; stored 25° C./60% RH, 1st week
  XRPD Pattern: Amorphous
[1]; stored 25° C./60% RH, 2nd week
  XRPD Pattern: Amorphous
[1]; [5]
  XRPD Pattern: Amorphous
[1]; stored 25° C./60% RH, 4th week
  XRPD Pattern: Amorphous
[1]; stored 40° C. Closed, 1st week
  XRPD Pattern: Amorphous
[1]; stored 40° C. Closed, 2nd week
  XRPD Pattern: Amorphous
[1]; [6]
  XRPD Pattern: Amorphous
[1]; stored 40° C. Closed, 4th week
  XRPD Pattern: Amorphous
[1]; stored 40° C./75% RH, 1st week
  XRPD Pattern: Amorphous
[1]; stored 40° C./75% RH, 2nd week
  XRPD Pattern: Amorphous
[1]; [7]
  XRPD Pattern: Amorphous
[1]; stored 40° C./75% RH, 4th week
  XRPD Pattern: Amorphous
[1]; stored 40° C./75% RH, after three months
  small spike in the XRPD: 13.5 degrees two theta [2θ°]
[2]; Initial
  Appearance: Light Yellow
[2]; stored 25° C. Closed, 1st week
  Appearance: Light
[2]; stored 25° C. Closed, 2nd week
  Appearance: Light
[2]; [4]
  Appearance: Light
[2]; stored 25° C. Closed, 4th week
  Appearance: Light
[2]; stored 25° C./60% RH, 1st week
  Appearance: Light
[2]; stored 25° C./60% RH, 2nd week
  Appearance: Light
[2]; [5]
  Appearance: Light
[2]; stored 25° C./60% RH, 4th week
  Appearance: Light
[2]; stored 40° C. Closed, 1st week
  Appearance: Light
[2]; stored 40° C. Closed, 2nd week
  Appearance: Light
[2]; [6]
  Appearance: Light
[2]; stored 40° C. Closed, 4th week
  Appearance: Light
[2]; stored 40° C./75% RH, 1st week
  Appearance: Light
[2]; stored 40° C./75% RH, 2nd week
  Appearance: Light
[2]; stored 40° C./75% RH, 3rd month, listed as Amorphous Apremilast
  Appearance: Darken
[2]; stored 40° C./75% RH, 3rd month, listed as apremilast
  Appearance: changed from light yellow to darkened yellow
[2]; stored 40° C./75% RH, 4th week
  Appearance: Light
[3]; Initial
  Tg of mDSC (first glass transition temperature): 77.7 °C
  Tg of mDSC (second glass transition temperature): 133.5 °C
[3]; all testing conditions, up to end of the third month
  change of first glass transition temperature (77.7° C.) on storage: did not change significantly
[3]; different testing conditions, first week and second week
  change of second glass transition temperature (133.6° C.) on storage: changed irregularly and even disappeared
[3]; stored 25° C. (closed), 40° C. (closed) and 25° C./60% RH for three months
  heat of fusion peak related to crystalline conversion: No heat of fusion peak related to crystalline conversion
[3]; stored 25° C. Closed, 1st week
  Tg of mDSC (first glass transition temperature): 77.7 °C
[3]; stored 25° C. Closed, 2nd week
  Tg of mDSC (first glass transition temperature): 78.5 °C
  Tg of mDSC (second glass transition temperature): 181.3 °C
[3]; [4]
  Tg of mDSC (first glass transition temperature): 79.0 °C
[3]; stored 25° C. Closed, 4th week
  Tg of mDSC (first glass transition temperature): 78.2 °C
[3]; stored 25° C./60% RH, 1st week
  Tg of mDSC (first glass transition temperature): 78.4 °C
  Tg of mDSC (second glass transition temperature): 171.4 °C
[3]; stored 25° C./60% RH, 2nd week
  Tg of mDSC (first glass transition temperature): 78.8 °C
[3]; [5]
  Tg of mDSC (first glass transition temperature): 79.9 °C
[3]; stored 25° C./60% RH, 4th week
  Tg of mDSC (first glass transition temperature): 78.9 °C
[3]; stored 40° C. Closed, 1st week
  Tg of mDSC (first glass transition temperature): 79.1 °C
[3]; stored 40° C. Closed, 2nd week
  Tg of mDSC (first glass transition temperature): 79.7 °C
  Tg of mDSC (second glass transition temperature): 170.4 °C
[3]; [6]
  Tg of mDSC (first glass transition temperature): 83.9 °C
[3]; stored 40° C. Closed, 4th week
  Tg of mDSC (first glass transition temperature): 81.1 °C
[3]; stored 40° C./75% RH, 1st week
  Tg of mDSC (first glass transition temperature): 77.5 °C
  Tg of mDSC (second glass transition temperature): 105.9 °C
[3]; stored 40° C./75% RH, 2nd week
  Tg of mDSC (first glass transition temperature): 77.8 °C
  Tg of mDSC (second glass transition temperature): 174.5 °C
[3]; [7]
  Tg of mDSC (first glass transition temperature): 77.7 °C
[3]; stored 40° C./75% RH, 4th week
  Tg of mDSC (first glass transition temperature): 78.0 °C
[3]; stored 40° C./75% RH, third month
  sharp endothermic peak on mDSC (related to melting point of the crystalline form): 153.4 °C

From patent publication US9994522B2, “Amorphous form of apremilast” (MAPI PHARMA LTD., priority 2014, dated 2018)
